These are literature values, as cited in patent US6750247B2, “Sponge-derived terpenoids and methods of use” (Galileo Laboratories, Inc., priority 2001, dated 2004).

The structures appear in SMILES notation.

The series has as its target T1, lipoxygenase (Homo sapiens, UniProt P09917).
T1 sequence (P09917 1-674): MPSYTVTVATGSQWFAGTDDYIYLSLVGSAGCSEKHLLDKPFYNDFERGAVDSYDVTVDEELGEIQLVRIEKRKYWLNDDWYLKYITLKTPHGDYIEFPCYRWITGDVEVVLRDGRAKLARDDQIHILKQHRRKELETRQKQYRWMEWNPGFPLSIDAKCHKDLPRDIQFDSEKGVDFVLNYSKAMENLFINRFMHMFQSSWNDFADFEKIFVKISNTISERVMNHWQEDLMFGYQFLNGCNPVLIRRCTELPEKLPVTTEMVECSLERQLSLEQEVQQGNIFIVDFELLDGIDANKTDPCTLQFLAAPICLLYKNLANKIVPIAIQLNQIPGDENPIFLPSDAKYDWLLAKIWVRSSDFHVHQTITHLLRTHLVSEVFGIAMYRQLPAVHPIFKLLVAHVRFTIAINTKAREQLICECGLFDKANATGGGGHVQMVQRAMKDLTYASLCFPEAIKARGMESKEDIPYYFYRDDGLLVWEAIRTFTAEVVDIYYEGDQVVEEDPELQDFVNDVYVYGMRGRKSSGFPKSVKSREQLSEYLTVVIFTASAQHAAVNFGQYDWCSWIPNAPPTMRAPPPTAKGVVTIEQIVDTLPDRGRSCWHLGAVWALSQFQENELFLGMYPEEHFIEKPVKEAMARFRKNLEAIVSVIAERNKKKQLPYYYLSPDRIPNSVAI
The following applies: Cabre et al., Inflamm. Res. 1996; cited from earlier work.

Regarding `CC1=C(CC/C(C)=C/CCC2=CC[C@H](C3=CC(=O)O[C@H]3O)O[C@H]2O)C(C)(C)CCC1` [manoalide], the lipoxygenase inhibitory properties entry is recorded as “no lipoxygenase inhibitory properties”.
